The source of these data is article PMC10311245, “Novel leaderless bacteriocin geobacillin 6 from thermophilic bacterium Parageobacillus thermoglucosidasius” (Frontiers in Microbiology, 2023).

No end group written: not given here.

The test system of one data set is B. coagulans JCM 2257^T. To be noted: ref Iwatani et al., 2007; cited from earlier work. From the text: (§1) For comparison, previous studies have shown that pallidocin, a glycocin-type bacteriocin produced by thermophilic bacteria A. pallidus strain 8, was active in the pM range against other thermophiles, and a 2.4 pM concentration of pallidocin inhibited the growth of thermophilic bacterium P. genomospecies 1 strain NUB36187 ([Kaunietis et al., 2019]). Other leaderless bacteriocins are active in the μM and nM ranges ([Fujita et al., 2007]; [Iwatani et al., 2007]) and have a broad spectrum of activity.

The subject of a further data set is Escherichia coli JM109. To be noted: ref Iwatani et al., 2007; cited from earlier work.
Description: as §1

For data set [1], the system named is P. dextrinicus JCM 5887^T. The note with it: ref Iwatani et al., 2007; cited from earlier work.
Description: as §1

Data set [2] relates to L. sakei subsp. sakei JCM 1157^T. The note with it: ref Iwatani et al., 2007; cited from earlier work.
Description: as §1

The test system of data set [3] is G. kaustophilus HTA 426^T. Put plainly: Live/dead assay (membrane integrity, SYTO9 and PI). In kind it is cell-based, Geobacillus kaustophilus. To be noted: 600 nM Geo6, 30 min, BHI, 55°C; fluorescence microscopy; red = damaged membrane. The method, then: An indicator strain G. kaustophilus HTA 426^T sensitive to bacteriocin was grown in BHI medium at 55°C till OD 0.5 was reached. Next, the bacteria culture was treated with 600 nM of Geo6 and further cultivated for 30 min. Then, the cell culture was centrifuged at 3000 ×g for 5 min and further washed two times with 0.9% NaCl solution (centrifuged at 3000 ×g for 5 min). After the last wash, cells were suspended in 0.9% NaCl solution and stained using LIVE/DEAD BacLight Bacterial Viability Kit (Invitrogen) containing SYTO9 and […] according to manufacturers’ recommendations. Cells were incubated in the dark at room temperature for 15 min. Next, cells were centrifuged at 3000 ×g for 5 min and washed two times with 0.9% NaCl solution (centrifuged at 3000 ×g for 5 min). Further, 10 μl of Geo6 treated cells and nontreated control cells suspensions were spotted onto objective slides and examined using a fluorescence microscope using filters FITC (480/500 nm) and Texas Red (490/635 nm).

A short description of data set [4]: Bacteriocin thermostability (activity by spot on a lawn assay after incubation). It is filed as physicochemical. The note with it: spot on a lawn read-out; for Antibacterial activity retained after heat treatment: two-fold dilutions. On the procedure:
[…] After incubation, serial two-fold dilutions of samples were made using medium, and further antibacterial activity of bacteriocin was assessed by spot on a lawn assay.

A short description of data set [5]: Thermal shift assay (differential scanning fluorimetry, SYPRO Orange). In kind it is physicochemical. To be noted: DSF, called inconclusive; for Melting temperature (Tm): 20–95°C, triplicate. On the procedure:
As an indicator of thermal denaturation in varying pH or other conditions a fluorescent SYPRO Orange dye (Invitrogen) that binds to hydrophobic parts of protein during its unfolding was used in this work. SYPRO Orange 50× stock solution was prepared by diluting 2.5 μl of 5,000× concentrate into 250 μl of deionized (DI) water. A volume of 2.5 μl of 50× SYPRO Orange was aliquoted into a white HardShell 96-well PCR plate (Bio-Rad). Different pH buffer solutions (25 mM Briton-Robinson, pH 3–11; [Bendikienė et al., 2004]) were added to aliquoted SYPRO Orange followed by adding an appropriately diluted solution of purified Geo6 into the wells at a final concentration of 0.25 nmol/ml (1.3 μg/ml). The final volume of the mixture was 25 μl. The negative control was 25 mM of Briton-Robinson buffer solutions in a range of pH 3 to 11, with 2.5 μl of SYPRO Orange. Lysozyme (final concentration of 100 μg/ml) diluted in 25 mM Briton-Robinson buffer (pH 5 and 6) and mixed with 2.5 μl of SYPRO Orange was used as a positive control. A curve experiment for DNA with the elimination of the initial denaturation step at 95°C was used. The melt curve temperature range was set from 20°C to 95°C in increments of 0.5°C for 5 s. Each experimental condition was prepared in triplicate. Thermal shift analysis or differential scanning fluorimetry (DSF) of Geo6 was performed in CFX Touch Real TIME PCR System (Bio-Rad) using CFX Manager (Bio-Rad) software.
A general note: DSF heats the sample and reads unfolding from a dye or from intrinsic fluorescence.

Data set [6] has as its system Geobacillus thermodenitrificans DSM 465^T. It is filed as cell-based. The method, then: (§2) MICs of Geo6 were determined according to the method of [Wiegand et al. (2008)] with some modifications. An indicator strain sensitive to bacteriocin was grown overnight at 55°C in a thermoshaker. The next day it was inoculated (2–3%) into fresh medium and cultivated until OD reached 1–1.5. The culture was further diluted and adjusted to 1 × 10^6 CFU/ml. A 95 μl of the medium was mixed with 5 μl of Geo6 and serial two-fold dilutions of suspension were made with the medium. Next, diluted mixtures were dispersed (100 μl) in a 96-well plate. A volume of 100 μl of previously prepared cell suspension was dispersed and mixed with the diluted bacteriocin in every well on the plate. As a result, the final volume of suspension in the well containing diluted bacteriocin and bacteria cells was 200 μl and the final concentration of the bacteria culture in the well was 5 × 10^5 CFU/ml. For each experiment, three replicates were made in the plate. Wells with positive controls contained a mixture of medium (95 μl) and Geo6 (5 μl), and negative controls contained bacteria suspension (5 × 10^5 CFU/ml) in the medium (100 μl). The plate was placed into a bag to prevent medium evaporation and put into a box, which was incubated overnight at 55°C in a thermoshaker. The next day, the growth inhibition was evaluated in the wells of the plate.

Data set [7] has as its system Geobacillus kaustophilus HTA 426. It is filed as cell-based. The method, then: as §2
In data set [8] the test system is Parageobacillus toebii DSM 14590^T. It is filed as cell-based. The method, then: as §2
Data set [9] concerns Geobacillus lituanicus DSM 15325^T. It is filed as cell-based. On the procedure: as §2
Data set [10] has as its system Geobacillus thermoleovorans DSM 5366^T. In kind it is cell-based. The method, then:
as §2

Data set [11] in a line: Bacteriocin stability in different pH ranges (activity by spot on a lawn assay after incubation). It is filed as physicochemical. To be noted: pH range 3–11, 25 mM Britton-Robinson buffer, 1:20, room temperature 2 h, neutralized to pH 7; spot on a lawn read-out. On the procedure: For evaluation of stability at different pH ranges, purified recombinant Geo6 was mixed with 25 mM Britton-Robinson buffer solutions ([Ebihara et al., 2016]) with different pH values in a ratio of 1:20. After incubation at room temperature for 2 h samples were neutralized with NaOH or HCl solutions to pH 7. Further, samples were diluted two-fold using a medium and assessed for antibacterial activity using spot on a lawn assay.

In the next data set the test system is L. lactis ATCC 19257. The note with it: ref Acedo et al., 2016; cited from earlier work.
Description: as §1

The test system of the next data set is B. campestris ATCC 43754. To be noted: ref Acedo et al., 2016; cited from earlier work.
Description: as §1

Data set [12] has as its system P. genomospecies 1 strain NUB36187. To be noted: thermophilic bacterium; ref Kaunietis et al., 2019; cited from earlier work.
Description: as §1

For data set [13] the following is noted: CD spectroscopy, aqueous buffers; reversible two-state conversion between helical and unfolded forms; ref Hammond et al., 2020; cited from earlier work. From the text:
A recent study using the CD spectroscopy method confirmed the formation of helical structures in epidermicin NI01 and aureocin A53 in aqueous buffers. […] Due to these interesting findings, we decided to employ a thermal shift assay, also known as differential scanning fluorimetry (DSF), to analyze the thermal denaturation of Geo6 under different pH ranges and temperatures. Additionally, to the best of our knowledge, this ...

Usually MIC stands for the lowest concentration found to suppress growth. As to lacticin Q, the MIC is 0.0016 µM with B. coagulans JCM 2257^T, 0.0073 µM in [1] and 0.0032 µM in data set [2]. Further, the Antibacterial activity result in the data set on Escherichia coli JM109 is given as “No activity was detected”.

Turning to “GMATFLRIVAQLSSKAAKWALDNKDKVLKWIRDGMAIDWIIDKINDIVG [Geo6, geobacillin 6]”, the “Membrane integrity (SYTO9/PI fluorescence of treated cells)” value in [3] is “all the cells exhibited red fluorescence”. Further, the “Antibacterial activity retained after heat treatment” value is 100% in data set [4] (60°C for 2 h); 100% in data set [4] (70°C for 2 h); “did not abolish its activity” in data set [4] (95°C for 6 h); 100% in data set [4] (95°C for 6 h, listed as Geobacillin 6); 100% in data set [4] (100°C for 2 h). The “Antibacterial activity retained after incubation at room temperature” value in data set [4] (room temperature for 24 h) is reported as 100%. Moreover, the “Melting temperature (Tm)” value in data set [5] (25 mM Briton-Robinson buffer pH 8, 0.25 nmol/ml (1.3 μg/ml)) is “none”; in data set [5] (25 mM Briton-Robinson buffer pH 9, 0.25 nmol/ml (1.3 μg/ml)), 76.75±1.77 °C; in [5] (25 mM Briton-Robinson buffer pH 10, 0.25 nmol/ml (1.3 μg/ml)) it was 76.5 °C; in data set [5] (25 mM Briton-Robinson buffer pH 11, 0.25 nmol/ml (1.3 μg/ml)) it was 80.5±0.7 °C. Also, the “Melting temperatures (Tm), partial unfolding” value in [5] (range of pH 9–11, 20–95°C) is 76.5–80.5 °C. Besides, the MIC is 2.34 µM in data set [6]; 0.293 µM in [7]; 4.45 µM in data set [8]; 0.585 µM in data set [9]; 0.585 µM in [10]. Besides, the “Antibacterial activity retained after incubation at different pH” value in [11] came to 100%.

Take “aureocin A54 (MSWLNFLKYIAKYGKKAVSAAWKYKGKVLEWLNVGPTLEWVWQKLKKIAGL; UniProt Q8GPI4 1-51, looked up)”: the MIC in the data set on L. lactis ATCC 19257 is 0.25 µM; in the data set with B. campestris ATCC 43754, 2 µM.

For the substance pallidocin, the “Concentration that inhibited growth” value in data set [12] was 2.4 pM.

For epidermicin NI01, the Denaturation temperature in [13] is 60 °C.
